From paper PMC11204205 (Science Advances, 2024)

Biological target: PKMζ (protein kinase Mzeta) (Homo sapiens, UniProt Q05513)
Experiment: split-Venus BiFC of KIBRA-PKMζ dimerization in HEK293T cells
Format: cell-based

Sequence of PKMζ (protein kinase Mzeta) (Q05513 184-592 limits assumed): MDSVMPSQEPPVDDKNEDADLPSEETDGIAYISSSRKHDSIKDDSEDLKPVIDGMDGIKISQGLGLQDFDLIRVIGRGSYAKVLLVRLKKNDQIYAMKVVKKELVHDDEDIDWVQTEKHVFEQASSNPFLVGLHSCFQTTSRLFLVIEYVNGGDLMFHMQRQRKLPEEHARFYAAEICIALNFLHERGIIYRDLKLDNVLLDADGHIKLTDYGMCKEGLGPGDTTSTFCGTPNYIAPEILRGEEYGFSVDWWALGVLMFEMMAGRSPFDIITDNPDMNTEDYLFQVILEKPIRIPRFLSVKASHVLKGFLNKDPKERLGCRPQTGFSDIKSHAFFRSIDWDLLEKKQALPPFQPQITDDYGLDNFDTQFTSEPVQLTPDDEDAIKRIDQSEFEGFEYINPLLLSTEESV
Sequence of PKMζ (protein kinase Mzeta) (Q8IX03 whole entry partner): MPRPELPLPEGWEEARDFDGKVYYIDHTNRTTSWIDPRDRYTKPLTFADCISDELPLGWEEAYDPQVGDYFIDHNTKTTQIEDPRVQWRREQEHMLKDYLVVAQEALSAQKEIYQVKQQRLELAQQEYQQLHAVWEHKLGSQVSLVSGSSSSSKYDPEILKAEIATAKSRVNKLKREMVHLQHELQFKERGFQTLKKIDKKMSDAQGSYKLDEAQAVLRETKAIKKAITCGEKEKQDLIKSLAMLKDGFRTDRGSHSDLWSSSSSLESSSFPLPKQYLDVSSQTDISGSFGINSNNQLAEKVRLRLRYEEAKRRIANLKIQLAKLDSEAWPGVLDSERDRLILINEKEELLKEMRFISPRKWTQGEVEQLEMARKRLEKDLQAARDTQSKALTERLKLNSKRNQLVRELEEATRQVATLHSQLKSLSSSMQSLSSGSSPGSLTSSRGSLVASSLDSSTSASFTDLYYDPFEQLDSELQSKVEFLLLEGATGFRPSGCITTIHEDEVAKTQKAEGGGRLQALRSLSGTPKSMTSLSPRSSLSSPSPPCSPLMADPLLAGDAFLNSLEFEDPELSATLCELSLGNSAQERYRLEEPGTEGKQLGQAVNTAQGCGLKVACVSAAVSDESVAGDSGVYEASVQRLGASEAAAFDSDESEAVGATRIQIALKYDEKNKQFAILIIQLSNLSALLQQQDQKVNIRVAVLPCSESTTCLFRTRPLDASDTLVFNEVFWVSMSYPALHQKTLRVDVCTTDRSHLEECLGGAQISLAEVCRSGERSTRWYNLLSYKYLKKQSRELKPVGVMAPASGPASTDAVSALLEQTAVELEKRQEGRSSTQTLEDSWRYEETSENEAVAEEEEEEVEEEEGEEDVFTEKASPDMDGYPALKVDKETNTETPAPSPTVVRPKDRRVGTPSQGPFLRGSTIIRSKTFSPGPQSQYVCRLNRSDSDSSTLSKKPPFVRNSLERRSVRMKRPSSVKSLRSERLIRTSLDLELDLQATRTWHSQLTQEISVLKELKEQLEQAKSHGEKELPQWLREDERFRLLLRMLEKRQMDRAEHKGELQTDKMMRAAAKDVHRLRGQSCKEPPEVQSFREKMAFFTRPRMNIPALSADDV

O=S(=O)(O)c1cc(O)c2c(S(=O)(=O)O)cc(S(=O)(=O)O)cc2c1 [ζ-stat, 1-naphthol-3,6,8-trisulfonic acid]
IC50: ~1000 nM
